From article PMC10083437, “Small molecules targeting Pin1 as potent anticancer drugs” (Frontiers in Pharmacology, 2023) come the findings set out here.

As a reminder, the pKd is the Kd on a negative log10 scale, so that one unit is a factor of ten.

pKd: −log10 of the molar value. Where two headings read alike, the source gives them in different places.

For experiment [1], the target named is T1, Pin1 (Homo sapiens, UniProt Q13526).
T1 construct: human Pin1 with C-terminal His tag (pET-30a-pin1, E. coli BL21)
Briefly: SPR (Biacore S200, Pin1 immobilized on CM5); also PPIase assay IC50 […]. In kind it is binding. A general note: SPR reads the build-up and loss of mass on a sensor chip optically.

Experiment [2] has as its target T1, Pin1. Described as above. The experiment is classed as binding. This is another data set of the same source.

T1 sequence (Q13526 whole entry): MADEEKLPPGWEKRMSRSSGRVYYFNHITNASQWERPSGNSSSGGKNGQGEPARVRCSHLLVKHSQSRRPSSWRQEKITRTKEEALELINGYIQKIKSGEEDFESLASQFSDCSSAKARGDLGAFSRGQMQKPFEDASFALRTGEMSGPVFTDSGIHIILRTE

`NS(=O)(=O)c1ccc(-c2[nH]c3ccc(Cl)cc3c2-c2cccc(Cl)c2)cc1` [HWH8-36, 2-(4-aminosulfonylphenyl)-3-(3-chlorophenyl)-5-chloro-indole] had a pKd at Pin1 [1] of 5.31.
Consider `NS(=O)(=O)c1ccc(-c2[nH]c3ccc(Cl)cc3c2-c2ccc(Cl)cc2)cc1` [HWH8-33, 2-(4-aminosulfonylphenyl)-3-(4-chlorophenyl)-5-chloro-indole], for which the pKd at Pin1 [2] was 5.01.
